Measurements taken from patent publication US7179813B2, “Bicyclic indolyl derivatives and methods for their use as serotonergic agents” (Wyeth, priority 2003, dated 2007).
Structures can show the parent of a compound that is named as a salt. Where two headings read alike, the source gives them in different places.

Experiments:
[1] = animal models; cited from earlier work
human 5-HT1A receptor [2] = molecular target: T1, human 5-HT1A receptor (Homo sapiens, UniProt P08908); test: Antagonism of 8-OH-DPAT inhibition of forskolin-stimulated cyclic-AMP turnover in transfected CHO cells; assay type: cell-based; conditions: CHO cells with human 5-HT1A receptor, read-out: cAMP IC50
T1 construct: expressed in transfected cells; host or cells: CHO cells (stably transfected)
T1 sequence (P08908 1-422): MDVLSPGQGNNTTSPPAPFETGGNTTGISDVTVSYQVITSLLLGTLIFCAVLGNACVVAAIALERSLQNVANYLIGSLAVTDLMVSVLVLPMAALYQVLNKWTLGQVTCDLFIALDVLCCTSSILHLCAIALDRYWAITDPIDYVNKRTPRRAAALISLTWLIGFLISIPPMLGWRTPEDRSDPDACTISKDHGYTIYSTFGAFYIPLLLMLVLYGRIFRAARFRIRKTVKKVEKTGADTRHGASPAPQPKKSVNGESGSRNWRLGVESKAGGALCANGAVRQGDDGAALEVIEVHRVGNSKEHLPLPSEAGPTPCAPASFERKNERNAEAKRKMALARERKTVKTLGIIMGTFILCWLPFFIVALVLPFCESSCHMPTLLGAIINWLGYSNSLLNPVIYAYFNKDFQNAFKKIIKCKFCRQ

human 5-HT1A receptor [3] = molecular target: T1, human 5-HT1A receptor; test: Serotonin 5-HT1A binding, displacement of [3H]8-OH-DPAT; conditions: [3H]8-OH-DPAT displacement, CHO cells stably transfected with human 5-HT1A receptor
From the text: Affinity for the serotonin 5-HT1A receptor was established by assaying the test compound's ability to displace [^3H]8-OH-DPAT from its binding site on the receptor complex in CHO cells stably transfected with the human 5-HT1A receptor following the procedure described by Dunlop et al., J. PharmacoL ToxicoL Methods 1998, 40, 47.

marmosets = conditions: cited from earlier work
[4] = in vivo; cited from earlier work
[5] = cited from earlier work
DU-145 = conditions: DU-145, in vitro; cited from earlier work
LNCaP = conditions: in vitro; cited from earlier work
PC3 cell line = conditions: athymic nude mice; cited from earlier work
PC3 = conditions: PC3, in vitro; cited from earlier work

For `C[C@H](CN(C(=O)C1C2CCC1CC2)c1ccccn1)N1CCN(c2cccc3[nH]ccc23)CC1` (stereo partly drawn) (as salt: hydrochloride) [Example 3, N-{(2R)-2-[4-(1H-Indol-4-yl)piperazin-1-yl]propyl}-N-pyridin-2-yl-bicyclo[2.2.1]heptane-7-carboxamide], the melting point was 176 to 179 °C.

Work on `C[C@H](CN(C(=O)[C@H]1CC2CCC1CC2)c1ccccn1)N1CCN(c2cccc3[nH]ccc23)CC1` (as salt: hydrochloride) [Example 1, (S)-N-{(2R)-2-[4-(1H-Indol-4-yl)piperazin-1-yl]propyl}-N-pyridin-2-yl-bicyclo[2.2.2]octane-2-carboxamide] yielded a melting point of 180 to 182 °C.

For `COc1ccccc1N1CCN(CC[C@](C)(C(=O)C2CCCCC2)c2ccccc2)CC1` [LY 426965], the “anxiogenic behaviors induced by nicotine withdrawal” value (“anxiogenic behaviors induced” below) [1] is given as “blocked”.

In the case of `C[C@H](CN(C(=O)C1C2CCC1CC2)c1ccccn1)N1CCN(c2cccc3[nH]ccc23)CC1` (stereo partly drawn) [Example 3, N-{(2R)-2-[4-(1H-Indol-4-yl)piperazin-1-yl]propyl}-N-pyridin-2-yl-bicyclo[2.2.1]heptane-7-carboxamide], the IC50 (human 5-HT1A receptor [2]) is reported as 74.5 nM and the Ki (human 5-HT1A receptor [3]) is reported as 0.98 nM.

For `COc1ccccc1N1CCN(CCN(C(=O)C2CCCCC2)c2ccccn2)CC1` [WAY-100635], the “anxiogenic behaviors induced” value [1] is listed as “blocked” and the “cognitive deficits induced by fomix lesions” value (marmosets) is listed as “reversed the cognitive deficits”.

With `C[C@H](CN(C(=O)C1(C)C2CCC1CC2)c1ccccn1)N1CCN(c2cccc3[nH]ccc23)CC1` (stereo partly drawn) (as salt: hydrochloride) [Example 4, N-{(2R)-2-[4-(1H-indol-4-yl)piperazin-1-yl]propyl}-7-methyl-N-pyridin-2-yl-bicyclo[2.2.1]heptane-7-carboxamide] the melting point was 236 to 238 °C.

In the case of `C[C@H](CN(C(=O)[C@H]1CC2CCC1CC2)c1ccccn1)N1CCN(c2cccc3[nH]ccc23)CC1` [Example 1, (S)-N-{(2R)-2-[4-(1H-Indol-4-yl)piperazin-1-yl]propyl}-N-pyridin-2-yl-bicyclo[2.2.2]octane-2-carboxamide], the IC50 (human 5-HT1A receptor [2]) is reported as 4.1 nM and the Ki (human 5-HT1A receptor [3]) is reported as 0.68 nM.

Work on `C[C@H](CN(C(=O)C1(C)C2CCC1CC2)c1ccccn1)N1CCN(c2cccc3[nH]ccc23)CC1` (stereo partly drawn) [Example 4, N-{(2R)-2-[4-(1H-indol-4-yl)piperazin-1-yl]propyl}-7-methyl-N-pyridin-2-yl-bicyclo[2.2.1]heptane-7-carboxamide] yielded an IC50 (human 5-HT1A receptor [2]) of 6.7 nM and a Ki (human 5-HT1A receptor [3]) of 0.45 nM.

In the case of `COc1ccccc1N1CCN(CC(C(=O)NC(C)(C)C)c2ccccc2)CC1` (centres unmarked) [WAY-100135], the “impairment of spatial learning caused by intrahippocampal scopolamine” value [4] is given as “prevented the impairment of spatial learning”.

In the case of `OC(CNC1CCCCC1)COc1cccc2[nH]ccc12` (centres unmarked) [LY206130], the “anxiogenic behaviors induced” value [1] is listed as “blocked”.

With `C[C@H](CN(C(=O)[C@@H]1CC2CCC1CC2)c1ccccn1)N1CCN(c2cccc3[nH]ccc23)CC1` [Example 2, (R)-N-[(2R)-2-[4-(1H-Indol-4-yl)-1-piperazinyl]propyl]-N-2-pyridin-2-yl-bicyclo[2.2.2]octane-2-carboxamide] the IC50 (human 5-HT1A receptor [2]) was 2.2 nM and the Ki (human 5-HT1A receptor [3]) was 0.69 nM.

For `CC(C)NCC(O)COc1cccc2[nH]ccc12` (centres unmarked) [pindolol], the “median time needed to achieve a sustained antidepressant response” value ([5]; co-administered with the SSRI fluoxetine) is listed as “significantly reduced the median time” and the “median time needed to achieve a sustained antidepressant response” value ([5]; co-administered with the SSRI paroxetine) is listed as “significantly reduced the median time”.

For `COc1ccccc1N1CCN(CCCCN2C(=O)c3ccccc3C2=O)CC1` [NAN-190], the “anxiogenic behaviors induced” value [1] is listed as “blocked”.

In the case of pindobind, the antineoplastic activity (DU-145) is given as “antineoplastic activity”, the antineoplastic activity (LNCaP) is given as “antineoplastic activity” and the “growth of the PC3 cell line in vivo” value (PC3 cell line) is given as “inhibited the growth”. For the same compound, the antineoplastic activity (PC3) was “antineoplastic activity”.
